Assay results as given in ChEMBL document CHEMBL1152258, “Imidazo[5,1-f][1,2,4]triazin-2-amines as novel inhibitors of polo-like kinase 1” (Bioorg Med Chem Lett, 2008).
pIC50: −log10 of the molar value.

Tests used:
[1] = molecular target: Serine/threonine-protein kinase PLK1 (Homo sapiens, UniProt P53350); test: Inhibition of PLK1 expressed in baculovirus infected Trichoplusia ni cells
[2] = Clearance in mouse at 2.9 mg/kg, iv; type: ADME, organism-based; set-up: dose 2.9 mg/kg, route intravenous; details: in vivo
HCT-116 = test: Antiproliferative activity against human HCT116 cells after 72 hrs; type: functional, cell-based; details: HCT-116, 72 h
[3] = AUC in po dosed mouse; type: ADME, organism-based; details: plasma
MCF7 = test: Antiproliferative activity against human MCF7 cells after 72 hrs; type: functional, cell-based; details: MCF7, 72 h
PC-3 = test: Antiproliferative activity against human PC3 cells after 72 hrs; type: functional, cell-based; details: PC-3, 72 h
[4] = Oral bioavailability in mouse; type: ADME, organism-based; details: in vivo
[5] = Volume of distribution at steady state in mouse at 2.9 mg/kg, iv; type: ADME, organism-based; set-up: dose 2.9 mg/kg, route intravenous; details: in vivo, read-out: Vdss
RKO = test: Antiproliferative activity against human RKO cells after 72 hrs; type: functional, cell-based
NCI-H460 = test: Antiproliferative activity against human H460 cells after 72 hrs; type: functional, cell-based; details: NCI-H460, 72 h
[6] = Clearance in mouse at 5 mg/kg, iv; type: ADME, organism-based; set-up: dose 5 mg/kg, route intravenous; details: in vivo
[7] = molecular target: Serine/threonine-protein kinase PLK3 (Homo sapiens, UniProt Q9H4B4); test: Inhibition of PLK3 expressed in baculovirus infected Trichoplusia ni cells
[8] = Volume of distribution at steady state in mouse at 5 mg/kg, iv; type: ADME, organism-based; set-up: dose 5 mg/kg, route intravenous; details: in vivo, read-out: Vdss

Sequence of Serine/threonine-protein kinase PLK1 (P53350 whole entry): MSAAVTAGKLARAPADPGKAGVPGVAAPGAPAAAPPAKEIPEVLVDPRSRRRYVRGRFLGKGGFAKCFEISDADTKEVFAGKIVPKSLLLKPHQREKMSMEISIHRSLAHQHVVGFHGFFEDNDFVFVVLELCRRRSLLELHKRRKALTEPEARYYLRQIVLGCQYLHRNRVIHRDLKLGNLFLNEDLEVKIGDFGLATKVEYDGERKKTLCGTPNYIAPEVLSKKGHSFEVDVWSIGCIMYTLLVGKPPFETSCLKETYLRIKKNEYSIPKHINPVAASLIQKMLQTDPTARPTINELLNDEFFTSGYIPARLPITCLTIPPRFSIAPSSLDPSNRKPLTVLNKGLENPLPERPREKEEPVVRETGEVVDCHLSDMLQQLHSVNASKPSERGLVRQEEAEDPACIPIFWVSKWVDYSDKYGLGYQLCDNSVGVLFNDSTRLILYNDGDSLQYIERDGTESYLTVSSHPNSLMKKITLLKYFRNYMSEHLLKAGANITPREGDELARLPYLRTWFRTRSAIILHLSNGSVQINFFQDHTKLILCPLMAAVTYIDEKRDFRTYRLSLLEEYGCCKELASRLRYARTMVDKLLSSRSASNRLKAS
Sequence of Serine/threonine-protein kinase PLK3 (Q9H4B4 whole entry): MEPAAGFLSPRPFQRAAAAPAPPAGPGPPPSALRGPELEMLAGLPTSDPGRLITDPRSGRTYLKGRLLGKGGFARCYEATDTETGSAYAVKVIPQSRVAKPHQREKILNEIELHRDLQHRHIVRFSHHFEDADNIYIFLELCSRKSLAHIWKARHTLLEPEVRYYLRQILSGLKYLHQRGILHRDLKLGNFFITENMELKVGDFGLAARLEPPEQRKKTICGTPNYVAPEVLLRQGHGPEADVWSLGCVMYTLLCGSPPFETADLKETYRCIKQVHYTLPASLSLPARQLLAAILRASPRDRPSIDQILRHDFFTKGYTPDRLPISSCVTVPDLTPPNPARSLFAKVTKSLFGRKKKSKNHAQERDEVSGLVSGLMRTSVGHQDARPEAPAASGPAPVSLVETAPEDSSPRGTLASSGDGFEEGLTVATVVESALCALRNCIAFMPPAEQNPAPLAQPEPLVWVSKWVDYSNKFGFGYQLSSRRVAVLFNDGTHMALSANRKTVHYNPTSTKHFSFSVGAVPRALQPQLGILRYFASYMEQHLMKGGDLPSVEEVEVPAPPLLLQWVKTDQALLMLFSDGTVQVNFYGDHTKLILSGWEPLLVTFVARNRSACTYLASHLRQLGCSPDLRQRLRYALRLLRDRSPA

COc1cc(Nc2ncc3c(C)nc(-c4ccccc4Br)n3n2)cc(OC)c1OC
pIC50 [1]: 5.57

COc1cc(Nc2ncc3c(C)nc(-c4ccccc4[N+](=O)[O-])n3n2)cc(OC)c1OC
pIC50 [1]: 5.70

Cc1nc(-c2ccccc2)n2nc(Nc3ccccc3)ncc12
pIC50 [1]: 5.92

COc1ccc(Nc2ncc3c(C)nc(-c4ccccc4)n3n2)cc1OC
pIC50 [1]: 7.05

COc1cc(Nc2ncc3c(C)nc(-c4cccc(C(F)(F)F)c4)n3n2)cc(OC)c1OC [GW837331X]
clearance [2]: 81 mL/min/kg
pIC50 (HCT-116): 5.41
AUC [3]: 264 ng·h/mL
pIC50 (MCF7): 5.32
pIC50 (PC-3): 5.11
bioavailability [4]: 18%
Vd [5]: 2.3 L/kg
pIC50 (RKO): 5.49
pIC50 (NCI-H460): 5.27

COc1ccccc1-c1nc(C)c2cnc(Nc3cc(OC)c(OC)c(OC)c3)nn12
pIC50 [1]: 5.25

Cc1nc(-c2ccccc2)n2nc(Nc3ccc(S(N)(=O)=O)cc3)ncc12
pIC50 [1]: 5.56

Cc1nc(-c2ccccc2)n2nc(NC3CCCCC3)ncc12
pIC50 [1]: < 5.00

COc1cc(Nc2ncc3c(C)nc(-c4ccc(C(F)(F)F)cc4)n3n2)cc(OC)c1OC
pIC50 [1]: 5.97

COc1cc(Nc2ncc3c(C)nc(-c4cccc(Br)c4)n3n2)cc(OC)c1OC
pIC50 (HCT-116): 5.11
pIC50 (MCF7): 4.96
pIC50 (PC-3): 4.59
pIC50 [1]: 7.15
pIC50 (RKO): 5.12
pIC50 (NCI-H460): 5.24

Cc1nc(-c2ccccc2)n2nc(Nc3cccc(C(F)(F)F)c3)ncc12
pIC50 [1]: < 5.00

COc1cc(Nc2ncc3c(C)nc(-c4ccccc4)n3n2)cc(OC)c1OC
pIC50 (HCT-116): 5.28
AUC [3]: 301 ng·h/mL
pIC50 (MCF7): 5.28
pIC50 (PC-3): 4.92
bioavailability [4]: 10%
clearance [6]: 53 mL/min/kg
pIC50 [7]: 7.05
Vd [8]: 1.6 L/kg
pIC50 (RKO): 5.43
pIC50 (NCI-H460): 5.19

Cc1nc(-c2ccccc2)n2nc(Nc3ccc([N+](=O)[O-])cc3)ncc12
pIC50 [1]: 5.55

COc1cc(Nc2ncc3c(C)nc(-c4ccc(F)cc4)n3n2)cc(OC)c1OC
pIC50 [1]: 7.10

COc1ccc(Nc2ncc3c(C)nc(-c4ccccc4)n3n2)cc1
pIC50 [1]: 6.17

Cc1nc(-c2ccccc2)n2nc(NCCCN3CCOCC3)ncc12 [GW874091X]
pIC50 [1]: < 5.00

COc1cccc(Nc2ncc3c(C)nc(-c4ccccc4)n3n2)c1
pIC50 [1]: 6.52

Cc1nc(-c2ccccc2)n2nc(N)ncc12
pIC50 [1]: < 5.00

Cc1nc(-c2ccccc2)n2nc(Nc3ccc(OCCN(C)C)cc3)ncc12
pIC50 [1]: 6.42

Cc1nc(-c2ccccc2)n2nc(NCCc3ccncc3)ncc12
pIC50 [1]: < 5.00

Cc1nc(-c2ccccc2)n2nc(NCc3ccccc3)ncc12
pIC50 [1]: 5.82
